In patent publication US20110207744A1, “Method for treating cognitive deficits” (H. Lundbeck A/S, priority 2008, published 2011):

Tests used:
D2 receptor = D2 receptor (Homo sapiens, UniProt P14416); experiment: PET study, D2 receptor occupancy (11C-raclopride tracer); assay type: in vivo; settings: healthy subjects, read-out: D2 receptor occupancy in the putamen
5-HT2 receptor = settings: WO 2005/016900; cited from earlier work
[1] = test system: subchronic PCP treated rats; experiment: attentional set-shifting in subchronic PCP rat disease model (executive functioning); assay type: in vivo; settings: for EDS discrimination performance (trials to criterion) vs PCP+vehicle group: 30 min before test
Text: The attentional set-shifting paradigm is an animal model which allows assessment of executive functioning via intra-dimensional (ID) versus extra-dimensional (ED) shift discrimination learning. A schizophrenia-disease-like animal model with subchronic phencyclidine (PCP) administration plus washout period is applied.
Accordingly, the cognitive enhancing properties of a compound can be investigated by testing whether the compound is attenuating the “attentional performance impairment” induced by subchronic PCP administration in rats.
Methodology. In vivo assessment of “attentional set-shifting performance” was conducted as described by Rodefer et al. (Eur. J. Neurosci. 21:1070-1076 (2005)), and was based on a modified version of the task designed by Birrell & Brown (J. Neurosci. 20:4320-4324 (2000)). Briefly, Male Long-Evans rats (Harlan, Indianapolis, Ind.) weighing approximately 250 g at the beginning of the study in four groups (n=12 each group) were used. After habituating to the colony room environment, rats received a series of subchronic injections of PCP (5 mg/kg, i.p.) or saline twice daily for 7 days, followed by a washout period of 10 days before beginning the set-shifting procedure in which animals were required to dig in a pot to retrieve a food reward (half of a Honey Nut Cheerio® (General Mills, Minneapolis, Minn., USA)) using either digging medium or scented odor as the dimensional cue. The test chamber was a Plexiglas® box (50×37.5×25 cm) with an opaque barrier separating one-third of the box from the rest (along the long axis of the box). […]
Habituation was performed for several days before testing; a pot filled with wood chip bedding used in the rats' home cages and baited with several Cheerios® was placed in each rat's cage, to accustom them to retrieving food rewards from the pots. […] The rats therefore could investigate the digging medium with paws or snout before executing a “dig” response, and these choices were not scored. […]

dopamine D2 receptors = dopamine D2 receptors (Homo sapiens, UniProt P14416); settings: WO 2005/016900; cited from earlier work
Chain of dopamine D2 receptors (P14416 whole entry): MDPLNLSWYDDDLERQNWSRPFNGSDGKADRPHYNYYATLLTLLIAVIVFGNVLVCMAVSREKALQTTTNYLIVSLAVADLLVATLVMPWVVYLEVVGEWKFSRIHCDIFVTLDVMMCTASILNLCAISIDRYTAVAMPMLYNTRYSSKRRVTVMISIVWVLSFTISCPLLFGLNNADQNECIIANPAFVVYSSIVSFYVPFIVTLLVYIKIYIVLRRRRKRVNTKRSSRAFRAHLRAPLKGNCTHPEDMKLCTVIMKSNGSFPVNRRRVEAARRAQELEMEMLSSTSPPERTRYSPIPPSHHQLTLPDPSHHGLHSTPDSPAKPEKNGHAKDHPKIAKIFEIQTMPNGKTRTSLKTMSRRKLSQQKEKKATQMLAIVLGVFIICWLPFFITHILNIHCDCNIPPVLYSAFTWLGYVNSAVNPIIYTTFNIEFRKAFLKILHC

[2] = test system: sub-chronic PCP treated rats; experiment: novel object recognition (NOR) test in sub-chronic PCP treated rats; assay type: in vivo, rat
Method: The NOR test was performed as described in the above cited reference (Grayson 2007).
Acquisition trial. […] Data are expressed as mean±s.e.m. (n=9-10 per group) and were analysed by ANOVA and post-hoc student's t-test.
Retention trial. […] Data are expressed as mean±s.e.m. (n=9-10 per group) and were analysed by ANOVA and post-hoc student's t-test.
Data are expressed as the mean±s.e.m. (n=9-10 per group) and were analysed using ANOVA followed by post-hoc Dunnett's t-test.
Locomotor activity. […] Data are expressed as mean±s.e.m (n=9-10 per group) and were analysed by ANOVA and post-hoc Dunnett's t-test.

D1 receptor = D1 receptor (Homo sapiens, UniProt P21728); experiment: PET study, D1 receptor occupancy (11C-SCH23390 tracer); assay type: in vivo; settings: healthy subjects, read-out: D1 receptor occupancy in putamen
Chain of D1 receptor (P21728 whole entry): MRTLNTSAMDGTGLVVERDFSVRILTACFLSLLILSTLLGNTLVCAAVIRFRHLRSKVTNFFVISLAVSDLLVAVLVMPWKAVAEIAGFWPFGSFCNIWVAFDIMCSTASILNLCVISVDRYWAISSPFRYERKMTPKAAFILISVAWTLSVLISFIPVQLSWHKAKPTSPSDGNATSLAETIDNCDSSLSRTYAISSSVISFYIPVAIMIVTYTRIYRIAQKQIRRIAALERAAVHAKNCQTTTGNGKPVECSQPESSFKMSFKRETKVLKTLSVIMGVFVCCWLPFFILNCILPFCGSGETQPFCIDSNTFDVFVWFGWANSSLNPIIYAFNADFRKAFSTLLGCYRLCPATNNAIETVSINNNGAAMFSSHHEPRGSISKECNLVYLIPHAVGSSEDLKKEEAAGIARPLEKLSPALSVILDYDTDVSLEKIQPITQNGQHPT

rats = experiment: condition avoidance response (CAR) model; assay type: in vivo, rat; settings: at very low levels of D2 receptor occupancy
Text: The compound of formula I is a putative antipsychotic compound with affinity for both dopamine D1 and D2 receptors.

α1 adrenoceptors = settings: WO 2005/016900; cited from earlier work
dopamine D1 receptors = dopamine D1 receptors (Homo sapiens, UniProt P21728); settings: WO 2005/016900; cited from earlier work
Chain of dopamine D1 receptors (P21728 whole entry): as above

[3] = test system: subchronic PCP treated rats; settings: given acutely; Rodefer et al. (2008); cited from earlier work
[4] = 2 mg/day given daily for 18 days
[5] = 10 mg/day given daily for 18 days

Chain of D2 receptor (P14416 whole entry): as the sequence (P14416 whole entry) above

SMILES: CN1CCN([C@@H]2C[C@@H](c3ccccc3)c3ccc(Cl)cc32)CC1(C)C [Compound I, trans-4-((1R,3S)-6-chloro-3-phenylindan-1-yl)-1,2,2-trimethylpiperazine]
- receptor occupancy at 2 mg (D2 receptor; [4]): 11%
- receptor occupancy at 10 mg (D2 receptor; [5]): 43%
- affinity for the 5-HT2 receptor (antagonist) (5-HT2 receptor): high affinity
- EDS discrimination performance (trials to criterion) vs PCP+vehicle group ([1]; 1.25 mg/kg s.c., t=3.09, p<0.05): significantly attenuated
- EDS discrimination performance (trials to criterion) vs PCP+vehicle group ([1]; 2.5 mg/kg s.c., t=3.80, p<0.01): significantly attenuated
- behavior on all other discrimination problems ([1]; 1.25 or 2.5 mg/kg s.c., all ps>0.05): No evidence was found that either dose of Compound I impacted behavior
- affinity for dopamine D2 receptors (antagonist) (dopamine D2 receptors): high affinity
- locomotor activity (total number of line crossings) ([2]; 2.5 mg/kg s.c., p<0.05 compared to vehicle): significantly reduced
- time spent exploring the identical objects, acquisition phase ([2]; acute 0.5-2.5 mg/kg s.c.): no significant difference
- sub-chronic PCP-induced impairment, novel vs familiar object exploration, retention phase ([2]; acute, all three doses 0.5, 1.25, 2.5 mg/kg s.c.): significantly attenuated
- receptor occupancy at 2 mg (D1 receptor; [4]): 32%
- receptor occupancy at 10 mg (D1 receptor; [5]): 69%
- antipsychotic activity in CAR model (rats): possesses antipsychotic activity
- affinity for α1 adrenoceptors (α1 adrenoceptors): high affinity
- affinity for dopamine D1 receptors (antagonist) (dopamine D1 receptors): high affinity

SMILES: CN1CCN(C2=Nc3cc(Cl)ccc3Nc3ccccc32)CC1 [clozapine, reference compound]
- PCP-induced reduction of discrimination index ([2]; 2.5 mg/kg i.p.): no significant effect

SMILES: O=C(CCCN1CCC(O)(c2ccc(Cl)cc2)CC1)c1ccc(F)cc1 [haloperidol]
- reversing PCP-disrupted attentional performance [3]: ineffective

SMILES: Cc1nc2n(c(=O)c1CCN1CCC(c3noc4cc(F)ccc34)CC1)CCCC2 [risperidone]
- reversing PCP-disrupted attentional performance [3]: ineffective
